Laboratory results published in PubChem BioAssay AID1996.
≈ marks a conversion by molar mass, not a printed value.

Details: buffer; pH 7.4; 200.0 µM

Compared with `COc1ccc2oc(C(=O)OCC(=O)Nc3ccc(C(=O)N(C)C)cc3)c(C)c2c1`, `O=C(COC(=O)c1ccc(O)cc1)Nc1ccc(OC(F)F)cc1` is 2-fold lower in solubility kinetic: 58.7 µg/mL (≈ 143 µM) for the first, 29.9 µg/mL (≈ 88.7 µM) for the second.

Compared with `CCC(C(=O)NC(C)c1ccccc1)C(=O)NC(C)c1ccccc1` (centres undefined), `O=C(CS(=O)(=O)c1ccccc1)NCc1ccccc1` is higher in solubility kinetic: 6.8 µg/mL (≈ 20.1 µM) for the first, greater than 43.4 µg/mL for the second.

`COc1cc(S(=O)(=O)NCCCn2ccnc2)ccc1Cl` and `COC(=O)CCN(C(=O)c1ccc(Cl)c([N+](=O)[O-])c1)c1ccccn1` cannot be ordered by solubility kinetic: greater than 49.5 µg/mL for the first, greater than 54.6 µg/mL for the second.

Compared with `Cc1ccccc1N1CC(C(=O)NC2CCCC2)CC1=O` (centres undefined), `CCOC(=O)C1CCN(C(=O)C2COc3ccccc3O2)CC1` (centres undefined) is lower in solubility kinetic: greater than 43 µg/mL for the first, 32.3 µg/mL (≈ 101 µM) for the second.

`O=CC1=C(N2CCOCC2)/C(=C\c2ccccc2)CC1` and `O=C(c1cccc(OCc2ccccc2)c1)N1CCOCC1` are within 1.5-fold of each other in solubility kinetic: 32.2 µg/mL (≈ 120 µM) for the first, 42.9 µg/mL (≈ 144 µM) for the second.

Compared with `CCOC(=O)CC(c1ccc(N)cc1)n1c(C)ccc1C` (centres undefined), `COC(=O)CNC(c1ccccc1)c1cc(Br)ccc1N` (centres undefined) is 3.8-fold lower in solubility kinetic: 20.8 µg/mL (≈ 72.6 µM) for the first, 5.5 µg/mL (≈ 15.7 µM) for the second.

Going from `Cc1cccc(N2CCN(Cc3cnc(Cl)s3)CC2C)c1` (centres undefined) to `O=C(C1CCC1)N1CCN(c2ccnc3cc(Cl)ccc23)CC1`, the solubility kinetic rises from 23.4 µg/mL (≈ 72.7 µM) to 45.4 µg/mL (≈ 138 µM) (1.9-fold).

Going from `O=C(CN1C(=O)S/C(=C\c2cc(Cl)c(O)c(Cl)c2)C1=O)Nc1ccccc1` to `O=C(COc1ccccc1)NS(=O)(=O)c1ccc(Cl)cc1`, the solubility kinetic rises from 3.6 µg/mL (≈ 8.51 µM) to greater than 48.9 µg/mL.

First: Cc1ccc(-n2c(=O)[nH]c3c(oc4ccccc43)c2=O)cc1
Second: Cc1ccc(-n2c(=O)c3ccccc3n(CC(=O)C(C)(C)C)c2=O)cc1
The solubility kinetic of the first is 5-fold higher: 38.8 µg/mL (≈ 133 µM) for the first, 7.7 µg/mL (≈ 22 µM) for the second.

First: CN(C)S(=O)(=O)c1cccc(NC(=O)c2cc(=O)[nH]c(=O)[nH]2)c1
Second: CSc1ccccc1C(=O)Nc1cccc([N+](=O)[O-])c1
The solubility kinetic of the first is higher: greater than 50.8 µg/mL for the first, 28.2 µg/mL (≈ 97.8 µM) for the second.

First: CCc1c(C)nc(N2CCN(c3ccc(F)cc3)CC2)[nH]c1=O
Second: CC1CN(C(=O)c2cc3cc(F)ccc3[nH]2)CC(C)O1 (centres undefined)
The solubility kinetic of the first is 15-fold lower: 2.1 µg/mL (≈ 6.64 µM) for the first, 32.2 µg/mL (≈ 117 µM) for the second.

First: Cc1ccc(NC(=O)CSc2cccc[n+]2[O-])c([N+](=O)[O-])c1
Second: COc1ccc(NC(=O)CCCc2ccccc2)c(OC)c1
The solubility kinetic of the first is higher: greater than 47.9 µg/mL for the first, 36.4 µg/mL (≈ 122 µM) for the second.

`COCC(=O)N(Cc1nc2sc(C)c(C)c2c(=O)[nH]1)C1CCCCC1` and `CCN(C(=O)CSc1nccc(=O)[nH]1)C1CCCCC1` cannot be ordered by solubility kinetic: 47.4 µg/mL (≈ 130 µM) for the first, greater than 44.3 µg/mL for the second.

Going from `O=C(Nc1ccc2c(c1)OCCO2)C(=O)c1c[nH]c2ccccc12` to `Cc1ccc(Oc2ccccc2NC(=O)C2=COCCO2)cc1`, the solubility kinetic rises from less than 0.3 µg/mL to 15.8 µg/mL (≈ 50.7 µM).

Compared with `O=[N+]([O-])c1ccc2c(c1)[nH]c(=S)n2-c1ccccc1`, `Nc1nc(Nc2ccccc2)nc(NCc2ccccc2)c1[N+](=O)[O-]` is 10-fold lower in solubility kinetic: 2 µg/mL (≈ 7.37 µM) for the first, 0.2 µg/mL (≈ 0.595 µM) for the second.

Compared with `CCCc1nnc(SCC(=O)NC2CCCCC2)n1CCOC`, `COc1ccc(C(=O)NC(=S)N(C)C2CCCCC2)cc1Br` is lower in solubility kinetic: greater than 51.1 µg/mL for the first, 0.7 µg/mL (≈ 1.82 µM) for the second.

Compared with `COc1ccc(CCNCc2ccccc2F)cc1.O=C(O)C(=O)O`, `COc1ccc(CNC(=O)COC(=O)c2ccc(C(=O)c3ccccc3)cc2)cc1` is 6.3-fold lower in solubility kinetic: 46.4 µg/mL for the first, 7.4 µg/mL (≈ 18.3 µM) for the second.

`CCc1ncc(C)[nH]1` and `Cc1cnc(C(=O)OCC(=O)c2cc(C)n(C)c2C)cn1` cannot be ordered by solubility kinetic: greater than 16.5 µg/mL for the first, greater than 43.1 µg/mL for the second.

First: CCCC1=[N+](CC(C)=O)CCn2c(C)ccc21.[Br-]
Second: COc1ccc(CCNC(=O)C2CC(=O)N(c3ccc(C)cc3)C2)cc1 (centres undefined)
The solubility kinetic of the first is higher: greater than 47 µg/mL for the first, 2.5 µg/mL (≈ 7.09 µM) for the second.

Going from `COc1ccc(CN2CCN(C3CCC3)CC2CCO)c(F)c1` (centres undefined) to `COc1ccc(CCNC(=O)CN2C(=O)NC3(CCCCC3)C2=O)cc1`, the solubility kinetic rises from 42.2 µg/mL (≈ 131 µM) to greater than 53.9 µg/mL.

`Cc1ccnc(NC(=O)c2ccco2)n1` and `NS(=O)(=O)c1ccc(CCNC(=O)c2ccco2)cc1` cannot be ordered by solubility kinetic: greater than 30.5 µg/mL for the first, greater than 44.1 µg/mL for the second.

Going from `C=CCN1C(=O)C2(OCCCO2)c2cc(C)ccc21` to `C=CCN1C(=O)C2(OCCCO2)c2cc(Cl)ccc21`, the solubility kinetic rises from 19.4 µg/mL (≈ 74.8 µM) to 33.7 µg/mL (≈ 120 µM) (1.7-fold).

First: CC1(C2CC2)NC(=O)N(CC(=O)Nc2ccccc2C#N)C1=O (centres undefined)
Second: O=C(Nc1ccc(Br)cn1)c1ccc2ccccc2c1
The solubility kinetic of the first is higher: greater than 46.8 µg/mL for the first, less than 0.4 µg/mL for the second.

First: COc1ccc(OCCNC(=O)/C=C/c2ccccc2)cc1
Second: C=COCCCNc1ncnc2sc(-c3ccccc3)cc12
The solubility kinetic of the first is 3.5-fold higher: 4.9 µg/mL (≈ 16.5 µM) for the first, 1.4 µg/mL (≈ 4.5 µM) for the second.

Compared with `CC(=O)OCCN(C)c1cc(SC(C)C)c2nonc2c1[N+](=O)[O-]`, `Cc1cc2oc(=O)cc(CN(C)Cc3ccccc3Cl)c2cc1C` is lower in solubility kinetic: 51.2 µg/mL (≈ 144 µM) for the first, less than 0.7 µg/mL for the second.

First: c1ccc(-c2nc3nc4ccccc4nc3n2CC2CCCO2)cc1 (centres undefined)
Second: O=c1cnc2ccccc2n1Cc1ccccc1C(F)(F)F
The solubility kinetic of the first is higher: greater than 49.6 µg/mL for the first, 43.1 µg/mL (≈ 142 µM) for the second.

`O=C(NNC1CC(=O)N(c2ccc(Cl)cc2)C1=O)c1ccco1` (centres undefined) and `CC(=O)NS(=O)(=O)c1ccc(NC(=O)[C@@H]2CCCN2S(=O)(=O)c2ccc(Cl)cc2)cc1` cannot be ordered by solubility kinetic: greater than 50.1 µg/mL for the first, greater than 72.9 µg/mL for the second.

First: Cn1cc(S(=O)(=O)NCC2CCCO2)c(=O)n(C)c1=O (centres undefined)
Second: Cc1ccc(/C=C2\C(=O)NC(=O)N2C)o1
The solubility kinetic of the first is higher: greater than 45.5 µg/mL for the first, 21.4 µg/mL (≈ 104 µM) for the second.

Going from `C=CCNC(=S)N1CCC(C(=O)c2ccc(Cl)cc2)CC1` to `O=C(CSc1ncnc2sccc12)N1CCCCC1`, the solubility kinetic rises from 43.5 µg/mL (≈ 135 µM) to greater than 44 µg/mL.

`CC1(C)C2C/C(=N\O)C(C)(/[N+]([O-])=C/c3cccc([N+](=O)[O-])c3)CC21` (centres undefined) showed a solubility kinetic of 45.2 µg/mL (≈ 136 µM).
